US5830885A, “Antiproliferative vitamin D3 hybrids” (The Johns Hopkins University, priority 1996, dated 1998)
Values joined by “and” are separate entries in the source; they are usually repeats but may differ in a detail not shown here. Identical values can stand only once. “Also recorded” adds a separate entry of the source. Blank lines part the entries; values can stand above or below the molecule they belong to.

Legend:
HL-60 cells = assay: Growth inhibition of HL-60 cells; type: cell-based; settings: FIG. 8; YA and YB 10^-7 M, others 10^-6 M
Text: YA and YB were at concentrations of 10^-7 M; the other compounds were at concentrations of 10^-6 M.

calf thymus VDR = target: T1, calf thymus VDR (Bos taurus, UniProt Q28037); assay: VDR binding assay, displacement of [^3 H]-1,25(OH)2 D3 from VDR; settings: for Amount Bound (amount that results in 50% displacement of [^3 H]-1,25(OH)2 D3 from VDR): Table 6, calf thymus VDR; for times less strongly bound to VDR than 1,25(OH)2 D3: relative to 1,25(OH)2 D3; for VDR binding affinity relative to that of calcitriol / binding to the 1,25(OH)2-vitamin D3 receptor (VDR), % of calcitriol's binding: relative to calcitriol
T1 construct: from the calf thymus VDR; from tissue; host or cells: calf thymus
T1 sequence (Q28037 1-426): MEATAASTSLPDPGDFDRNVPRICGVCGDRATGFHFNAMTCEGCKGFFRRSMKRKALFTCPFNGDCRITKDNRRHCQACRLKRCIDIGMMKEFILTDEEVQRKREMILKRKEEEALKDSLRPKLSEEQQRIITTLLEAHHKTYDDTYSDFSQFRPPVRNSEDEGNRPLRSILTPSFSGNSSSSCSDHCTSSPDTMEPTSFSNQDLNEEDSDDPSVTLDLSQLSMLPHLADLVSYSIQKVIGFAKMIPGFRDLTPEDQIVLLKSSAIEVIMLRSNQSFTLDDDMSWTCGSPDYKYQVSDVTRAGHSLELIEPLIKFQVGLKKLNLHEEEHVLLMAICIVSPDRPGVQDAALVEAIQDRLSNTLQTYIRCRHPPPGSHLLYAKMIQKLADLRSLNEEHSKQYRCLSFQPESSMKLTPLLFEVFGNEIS
Experimental: The VDR binding assay was performed according to the procedure of Reinhardt, T. A., Horst, R. L., Orf, J. W., Hollis, B. W., J. Clin. Endocrin. Metab., 58: 91-98 (1984), the entire contents of which are hereby incorporated herein by reference.

[1] = test system: murine keratinocyte cells (cell line PE); assay: Growth inhibition of PE keratinocytes (MTT assay); type: cell-based; settings: FIG. 7
Experimental: The compounds were tested for growth inhibition of murine keratinocyte cells (cell line PE) and for the inhibition of TPA-induced ornithine decarboxylase (ODC) activity.
The PE cell line culture medium used in the tests consisted of Eagle's minimal essential medium without calcium chloride supplemented with 8% chelexed fetal calf serum and 1% antibiotic-antimycotic and the addition of CaCl2 to 0.05 mM Ca^++.
PE cells were seeded at a density of 5,000 cells/well in 50 μl medium into 96-well microtiter plates. […] The plates were fed once at 48 hours, with the re addition of the vitamin D3 analogues at this time. At 24 hour intervals following the initial treatment of the cells with compounds, 0.1 mg ([…] of a 2 mg/ml solution) of MTT was added to the plates. After 4 hours, the MTT was removed and DMSO added to dissolve the blue formazan dye. Using a microtiter plate reader, the A505 was then determined and cell number calculated from blank-subtracted absorbance values.

cell proliferation = assay: Anti-proliferative activity (summary statements); type: cell-based; settings: compared with calcitriol or in general words
keratinocyte = assay: Dose-response effects on keratinocyte proliferation (FIGS. 3, 4, 9, 10); type: cell-based; settings: cell numbers at 0 and 96 hours
Experimental: N0 represents the number of cells at zero hours and N1 represents the number of cells at 96 hours.

calcium channels = assay: Calcium channel opening assay; type: cell-based; settings: Bay K 1 μM, in the experiments of each compound's line
[2] = in vivo; cited from earlier work
[3] = test system: Human lymphoma cells U 937; settings: relative to calcitriol = 1; cited from earlier work
[4] = test system: Human lymphoma cells U 937; settings: relative to calcitriol = 1; cited from earlier work; remark: listed apart in the source
Lewis rats = settings: relative to calcitriol = 1; cited from earlier work
[5] = Crystallization behaviour; type: physicochemical
[6] = Solubility in organic solvents; type: physicochemical; settings: methylene chloride, chloroform, methanol; for YA/YB also EtOAc, acetone

Structure (SMILES): C=C1/C(=C\C=C2/CCC[C@]3(C)[C@@H]([C@H](C)/C=C/C=C/C(O)(CC)CC)CC[C@@H]23)C[C@H](O)C[C@H]1CO [MCW 068-Y-EE]
anti-proliferative activity (cell proliferation): comparable to that of calcitriol
VDR binding affinity relative to that of calcitriol (calf thymus VDR): ~ 10^-3
effect on keratinocyte proliferation (keratinocyte): much greater anti proliferative activity than MCW 068-Y-ED

Structure (SMILES): COC(=O)C1=C(C)NC(C)=C([N+](=O)[O-])C1c1ccccc1C(F)(F)F (stereo not shown) [Bay K, reference compound]
Average peak shift compared to control (calcium channels): 28.3 ± 5.6 mV and 29.0 ± 1.4 mV and 26.3 ± 4.5 mV and 27.9 ± 5.3 mV

Structure (SMILES): C=C1/C(=C\C=C2/CCC[C@]3(C)[C@@H]([C@@H](C)OCCCC(O)(CC)CC)CC[C@@H]23)C[C@H](O)C[C@H]1CCF [RHH 045 B, 1α- and 1β-(2-Fluoroethyl)-25-hydroxyvitamin D3 Homologs]
anti-proliferative activity (cell proliferation): comparable to that of calcitriol
VDR binding affinity relative to that of calcitriol (calf thymus VDR): ~ 10^-3
effect on keratinocyte proliferation (keratinocyte): far more effective in inhibiting cell proliferation

Structure (SMILES): C=C1/C(=C\C=C2/CCC[C@]3(C)[C@@H]([C@@H](C)CSc4cccc(C(C)(C)O)c4)CC[C@@H]23)C[C@@H](O)C[C@@H]1O [GS 1500]
serum half-life [2]: very short serum half-life

Structure (SMILES): C=C1/C(=C\C=C2/CCC[C@]3(C)[C@@H]([C@H](C)/C=C/[C@@H](O)C4CC4)CC[C@@H]23)C[C@@H](O)C[C@@H]1O [Mc-903 (Calcipotriol)]
Relative Potency, Induction of Differentiation [3]: 1
Relative Potency, Inhibition of Proliferation [4]: 1.3
Relative Potency, Calcemic Effects (Lewis rats): < 0.01

Structure (SMILES): C=C1/C(=C\C=C2/CCC[C@]3(C)[C@@H]([C@H](C)CCCC(C)(C)O)CC[C@@H]23)C[C@H](O)C[C@H]1CO [(+)-3, 1β-hydroxymethyl-3β-norhydroxy-3α, 25-dihydroxyvitamin D3]
anti-proliferative activity (cell proliferation): did not change the anti- proliferative or cell growth inhibitory activity
binding to the 1,25(OH)2-vitamin D3 receptor (VDR), % of calcitriol's binding (calf thymus VDR): ≤ 2%
ease of crystallization [5]: very difficult to crystallize

Structure (SMILES): C=C1/C(=C\C=C2/CCC[C@]3(C)C([C@H](C)CC#CC(C)(C)O)=CC[C@@H]23)C[C@H](O)C[C@H]1CO [JK III 7-2]
anti-proliferative activity (cell proliferation): comparable to that of calcitriol
VDR binding affinity relative to that of calcitriol (calf thymus VDR): ~ 10^-3
effect on keratinocyte proliferation (keratinocyte): equal to or greater than calcitriol

Structure (SMILES): C=C1/C(=C\C=C2/CCC[C@]3(C)[C@@H]([C@H](C)CCCC(C)(C)O)CC[C@@H]23)C[C@@H](O)C[C@@H]1CO [(-)-2, 1α-hydroxymethyl-25-hydroxyvitamin D3]
anti-proliferative activity (cell proliferation): did not change the anti- proliferative or cell growth inhibitory activity
solubility in organic solvents [6]: unexpectedly poor solubility; also recorded: only sparingly soluble
binding to the 1,25(OH)2-vitamin D3 receptor (VDR), % of calcitriol's binding (calf thymus VDR): ≤ 2%
ease of crystallization [5]: easily crystallized

Structure (SMILES): C=C1/C(=C\C=C2/CCC[C@]3(C)[C@@H]([C@H](C)/C=C/C=C/C(O)(CC)CC)CC[C@@H]23)C[C@@H](O)C[C@@H]1O [EB1089]
Relative Potency, Induction of Differentiation [3]: 67
Relative Potency, Inhibition of Proliferation [4]: 68
Relative Potency, Calcemic Effects (Lewis rats): 0.4

Structure (SMILES): C=C1/C(=C\C=C2/CCC[C@]3(C)C([C@H](C)CC#CC(C)(C)O)=CC[C@@H]23)C[C@@H](O)C[C@@H]1CO [JK III 7-1]
effect on keratinocyte proliferation (keratinocyte): appears ineffective in reducing cell proliferation

More lines, main results first:

Amount Bound (amount that results in 50% displacement of [^3 H]-1,25(OH)2 D3 from VDR) (calf thymus VDR): 1450 ng
VDR binding affinity relative to that of calcitriol (calf thymus VDR): less than 10^-3
Structure (SMILES): C=C1/C(=C\C=C2/CCC[C@]3(C)[C@@H]([C@@H](C)CSc4cccc(C(C)(C)O)c4)CC[C@@H]23)C[C@@H](O)C[C@@H]1CO [JK 277-1]
inhibition of growth of HL-60 cells (HL-60 cells): more modest effect
inhibition of proliferation of PE cells [1]: inhibited proliferation of PE cells

Amount Bound (amount that results in 50% displacement of [^3 H]-1,25(OH)2 D3 from VDR) (calf thymus VDR): 1650 ng
VDR binding affinity relative to that of calcitriol (calf thymus VDR): less than 10^-3
Structure (SMILES): C=C1/C(=C\C=C2/CCC[C@]3(C)[C@@H]([C@@H](C)COCCCC(C)(C)O)CC[C@@H]23)C[C@@H](O)C[C@@H]1CO [JK 276-1]
inhibition of growth of HL-60 cells (HL-60 cells): more modest effect
inhibition of proliferation of PE cells [1]: inhibited proliferation of PE cells

Amount Bound (amount that results in 50% displacement of [^3 H]-1,25(OH)2 D3 from VDR) (calf thymus VDR): 22.5 ng
times less strongly bound to VDR than 1,25(OH)2 D3 (calf thymus VDR): about 1500 times
VDR binding affinity relative to that of calcitriol (calf thymus VDR): less than 10^-3
Structure (SMILES): C=C1/C(=C\C=C2/CCC[C@]3(C)[C@@H]([C@@H](C)COCCCC(C)(C)O)CC[C@@H]23)C[C@H](O)C[C@H]1CO [JK 276-2]
inhibition of growth of HL-60 cells (HL-60 cells): even more effective than YB in inhibiting growth
inhibition of proliferation of PE cells [1]: inhibited proliferation of PE cells; also recorded: at much lower concentrations than their corresponding 1α,3β-stereoisomers

Amount Bound (amount that results in 50% displacement of [^3 H]-1,25(OH)2 D3 from VDR) (calf thymus VDR): 40 ng
times less strongly bound to VDR than 1,25(OH)2 D3 (calf thymus VDR): ~3750 times
VDR binding affinity relative to that of calcitriol (calf thymus VDR): less than 10^-3
Structure (SMILES): C=C1/C(=C\C=C2/CCC[C@]3(C)[C@@H]([C@@H](C)CSc4cccc(C(C)(C)O)c4)CC[C@@H]23)C[C@H](O)C[C@H]1CO [JK 277-2]
inhibition of growth of HL-60 cells (HL-60 cells): even more effective than YB in inhibiting growth
inhibition of proliferation of PE cells [1]: inhibited proliferation of PE cells; also recorded: at much lower concentrations than their corresponding 1α,3β-stereoisomers
